Target: T1, PDK-1 (Homo sapiens, UniProt O15530)
T1 sequence (O15530 1-556): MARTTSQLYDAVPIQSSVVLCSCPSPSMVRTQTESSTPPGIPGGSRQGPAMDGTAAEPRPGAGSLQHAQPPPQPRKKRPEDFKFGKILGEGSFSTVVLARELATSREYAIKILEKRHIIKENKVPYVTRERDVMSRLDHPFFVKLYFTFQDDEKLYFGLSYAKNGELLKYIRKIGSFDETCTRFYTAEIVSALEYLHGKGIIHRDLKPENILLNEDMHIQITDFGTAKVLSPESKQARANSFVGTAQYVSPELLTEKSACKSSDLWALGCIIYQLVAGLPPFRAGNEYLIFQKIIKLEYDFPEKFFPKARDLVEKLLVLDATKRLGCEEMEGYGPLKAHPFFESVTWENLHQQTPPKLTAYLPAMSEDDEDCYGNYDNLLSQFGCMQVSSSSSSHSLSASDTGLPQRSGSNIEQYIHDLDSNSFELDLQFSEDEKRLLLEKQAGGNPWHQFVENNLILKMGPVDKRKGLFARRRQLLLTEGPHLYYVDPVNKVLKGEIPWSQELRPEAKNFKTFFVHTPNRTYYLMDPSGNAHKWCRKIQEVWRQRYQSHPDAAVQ
Assay: PDK-1 kinase inhibition ELISA assay (phosphorylation of His6-tagged SGK1 S422D by PDK-1)
Format: biochemical
Settings: in vitro ELISA; phosphorylation of His6-tagged SGK1 (S422D) on Thr256 by PDK-1, 20 minutes, chemiluminescent detection
Procedure: The ability of an illustrative Pyrimido[5,4-c]quinoline-2,4-diamine Derivative to inhibit PDK-1 in vitro can be determined using an ELISA assay as described in Kobayashi et al., Biochem. J. 339:319-328 (1999) and Park et al., EMBO J. 18:3024-3033 (1999).
In an in vitro assay, His6-tagged SGK1 with S422D mutation (formerly Upstate Biotech, now Millipore) on Thr256 is allowed to be phosphorylated by PDK-1 in the presence of a Pyrimido[5,4-c]quinoline-2,4-diamine Derivative. After 20 minutes, the reaction is quenched via the addition of urea. The His6-tagged SGK1 is then bound to 96 well Ni-NTA HisSorb plates (Quiagen, Inc.) and phosphorylated SGK1 is quantitatively detected using rabbit derived anti-phospho SGK antibody (Cell Signaling Technology) as the primary antibody and horseradish peroxidase (HRP)— coupled anti-rabbit antibody (formerly Zymed, now Invitrogen) as the secondary antibody. HRP is then detected using a chemiluminescent substrate (Pierce Chemical Co.).
IC50 values of illustrative Pyrimido[5,4-c]quinoline-2,4-diamine Derivatives, shown in Table 4, are calculated using LSW Data Analysis package add-in for Excel (Microsoft).

IC50 [µM]	SMILES
9.33	COCCOc1cc2ncc3c(N)nc(N(C)C)nc3c2cc1OC [Ia-8, 9-methoxy-8-(2-methoxyethoxy)-N2,N2-dimethylpyrimido[5,4-c]quinoline-2,4-diamine]
55.7	CCOc1cc2ncc3c(N)nc(N4CCOCC4)nc3c2cc1OCC [Ia-4, 8,9-diethoxy-2-morpholin-4-ylpyrimido[5,4-c]quinolin-4-amine]
39.6	COCCOc1cc2ncc3c(N)nc(N4CCC[C@H]4COC)nc3c2cc1OC [Ia-16, 9-methoxy-8-(2-methoxyethoxy)-2-[(2S)-2-(methoxymethyl)pyrrolidin-1-yl]pyrimido[5,4-c]quinolin-4-amine]
> 200	COCCOc1cc2ncc3c(N)nc(N4CCOCC4)nc3c2cc1OC [Ia-5, 9-methoxy-8-(2-methoxyethoxy)-2-morpholin-4-ylpyrimido[5,4-c]quinolin-4-amine]
> 200	COCCOc1cc2ncc3c(N)nc(N4CCC(=O)CC4)nc3c2cc1OC [Ia-13, 1-[4-amino-9-methoxy-8-(2-methoxyethoxy)pyrimido[5,4-c]quinolin-2-yl]piperidin-4-one]
5.43	COCCOc1cc2ncc3c(N)nc(NC4CCCCC4)nc3c2cc1OC [Ia-17, N2-cyclohexyl-9-methoxy-8-(2-methoxyethoxy)pyrimido[5,4-c]quinoline-2,4-diamine]
18	CCOc1cc2ncc3c(N)nc(N)nc3c2cc1OCC [Ia-2, 8,9-diethoxypyrimido[5,4-c]quinoline-2,4-diamine]
36.3	COCCOc1cc2ncc3c(N)nc(N4CCC(O)C4)nc3c2cc1OC (stereo not shown) [Compound Ia-6, 1-[4-Amino-9-methoxy-8-(2-methoxyethoxy)pyrimido[5,4-c]quinolin-2-yl]pyrrolidin-3-ol]
111	COCCOc1cc2ncc3c(N)nc(N4CCN(c5ccccc5)CC4)nc3c2cc1OC [Ia-18, 9-methoxy-8-(2-methoxyethoxy)-2-(4-phenylpiperazin-1-yl)pyrimido[5,4-c]quinolin-4-amine]
83.1	COCCOc1cc2ncc3c(N)nc(N4CCOc5ccccc5C4)nc3c2cc1OC [Ia-20, 2-(2,3-dihydro-1,4-benzoxazepin-4(5H)-yl)-9-methoxy-8-(2-methoxyethoxy)pyrimido[5,4-c]quinolin-4-amine]
12.2	COc1cc2ncc3c(N)nc(N)nc3c2cc1OC [Ia-1, 8,9-dimethoxypyrimido[5,4-c]quinoline-2,4-diamine]
> 200	COCCOc1cc2ncc3c(N)nc(N4CCN(C)CC4)nc3c2cc1OC [Ia-7, 9-methoxy-8-(2-methoxyethoxy)-2-(4-methylpiperazin-1-yl)pyrimido[5,4-c]quinolin-4-amine]
> 200	CCNc1nc(N)c2cnc3cc(OCCOC)c(OC)cc3c2n1 [Ia-9, N2-ethyl-9-methoxy-8-(2-methoxyethoxy)pyrimido[5,4-c]quinoline-2,4-diamine]
6.55	COCCOc1cc2ncc3c(N)nc(N4CCCC4)nc3c2cc1OC [Ia-14, 9-methoxy-8-(2-methoxyethoxy)-2-pyrrolidin-1-ylpyrimido[5,4-c]quinolin-4-amine]
2.15	COCCOc1cc2ncc3c(N)nc(N4CCC[C@@H]4COC)nc3c2cc1OC [Ia-15, 9-methoxy-8-(2-methoxyethoxy)-2-[(2R)-2-(methoxymethyl)pyrrolidin-1-yl]pyrimido[5,4-c]quinolin-4-amine]
50.5	COCCOc1cc2ncc3c(N)nc(N4CCC5(CC4)OCCO5)nc3c2cc1OC [Ia-10, 2-(1,4-dioxa-8-azaspiro[4.5]dec-8-yl)-9-methoxy-8-(2-methoxyethoxy)pyrimido[5,4-c]quinolin-4-amine]
